Tested on: HepG2 cells
Assay: Glutathione content of HepG2 cells with or without glutathione precursor amino acids
Format: cell-based
Details: in vitro model of normal liver, FIG. 4

Structure (SMILES) | effect on the glutathione homeostasis in liver HepG2 cells
N[C@@H](CS)C(=O)O [cysteine] | positive effect
NC(=O)CC[C@H](N)C(=O)O [glutamine] | positive effect
